# Laboratory results: patent US20230136600A1, “Method and device for screening antigen epitope polypeptide” (priority 2020, published 2023)
# How the values were obtained:
# [1] = system: novel coronavirus (live coronavirus), vero cells; test: In-vitro live virus neutralization experiment with serum of immunized mice (CPE method); assay type: in vivo, SARS-CoV-2; conditions: Embodiment I: single peptide 100 μg + MF59 at Day 0, 14, 28, Balb/c mice, serum Day 35
# Balb/c mice = test: Polypeptide chip-based vaccine immunogenicity scoring system; assay type: in vivo; set-up: key to A2: whether the 95 percentile of the last sampling is increased compared with the end point: Y = rise; N = no rise
# [2] = Embodiment III, polypeptide-KLH
# [3] = Embodiment III, polypeptide-KLH, Mix1-10
# [4] = Embodiment III, polypeptide-KLH, total score = 5
# [5] = Embodiment III, polypeptide-KLH, value of the whole mix
# [6] = adjuvant AddaVax, 7 peptides co-immunized in mice
# [7] = adjuvant Adju-Phos, 7 peptides co-immunized in mice
# [8] = adjuvant Alhydrogel, 7 peptides co-immunized in mice
# [9] = adjuvant Imjet Alumn, 7 peptides co-immunized in mice
# [10] = adjuvant MA103A, 7 peptides co-immunized in mice
# [11] = adjuvant MA103B, 7 peptides co-immunized in mice
sequence,measurement,setting,value
YGANKDGI (SARS-CoV-2) [SEQ ID NO:21],Neutralizing antibody positive rate (%),[1],40%
same,B1: D 0-D 14 95 percentile rise in the number of mice,Balb/c mice; [2],3
same,B2: D 0-D 21 95 percentile rise in the number of mice,Balb/c mice; [2],3
same,B3: D 14-D 21 95 percentile rise in the number of mice,Balb/c mice; [2],1
same,B4: D 21-D 28 95 percentile rise in the number of mice,Balb/c mice; [2],1
same,A1: difference between a highest median and a D 0 median (95 percentile),Balb/c mice; [3],0.08
same,A2: whether the 95 percentile of the last sampling is increased compared with the end point,Balb/c mice; [3],Y
same,Total single peptide,"Balb/c mice; Embodiment III, polypeptide-KLH, A*3 + B*2 + C*1",14.8
same,A: 95 percentile grouping number score,Balb/c mice; [4],3.5
same,B: Mouse performance score,Balb/c mice; [4],1.9
same,C1: #A timing-sequence response peptide fragment set,Balb/c mice; [5],230
same,C2: #B vaccine specificity peptide fragment set,Balb/c mice; [5],251
same,C3: Intersection of A and B,Balb/c mice; [5],1
same,C4: Percentage of the intersection in set B,Balb/c mice; [5],0.398
same,C: Timing-sequence response and specificity score,Balb/c mice; [5],0.5
same,1) 95 percentile grouping number A,Balb/c mice; [6],3.5
same,1) 95 percentile grouping number A1,Balb/c mice; [6],0.055
same,2) Mouse performance B,Balb/c mice; [6],2.6
same,2) Mouse performance B1,Balb/c mice; [6],0
same,2) Mouse performance B2,Balb/c mice; [6],3
same,2) Mouse performance B3,Balb/c mice; [6],5
same,3) Timing-sequence response and specificity C,Balb/c mice; [6],0
same,3) Timing-sequence response and specificity C1,Balb/c mice; [6],237
same,3) Timing-sequence response and specificity C2,Balb/c mice; [6],1244
same,3) Timing-sequence response and specificity C3,Balb/c mice; [6],0
same,3) Timing-sequence response and specificity C4,Balb/c mice; [6],0.000
same,Total single peptide,Balb/c mice; [6],15.7
same,1) 95 percentile grouping number A,Balb/c mice; [7],4
same,1) 95 percentile grouping number A1,Balb/c mice; [7],0.05
same,2) Mouse performance B,Balb/c mice; [7],2.9
same,2) Mouse performance B1,Balb/c mice; [7],3
same,2) Mouse performance B2,Balb/c mice; [7],4
same,2) Mouse performance B3,Balb/c mice; [7],3
same,3) Timing-sequence response and specificity C,Balb/c mice; [7],0
same,3) Timing-sequence response and specificity C1,Balb/c mice; [7],203
same,3) Timing-sequence response and specificity C2,Balb/c mice; [7],1244
same,3) Timing-sequence response and specificity C3,Balb/c mice; [7],0
same,3) Timing-sequence response and specificity C4,Balb/c mice; [7],0.000
same,Total single peptide,Balb/c mice; [7],17.8
same,1) 95 percentile grouping number A,Balb/c mice; [8],1.5
same,1) 95 percentile grouping number A1,Balb/c mice; [8],0.025
same,2) Mouse performance B,Balb/c mice; [8],2.4
same,2) Mouse performance B1,Balb/c mice; [8],4
same,2) Mouse performance B2,Balb/c mice; [8],2
same,2) Mouse performance B3,Balb/c mice; [8],2
same,3) Timing-sequence response and specificity C,Balb/c mice; [8],1
same,3) Timing-sequence response and specificity C1,Balb/c mice; [8],123
same,3) Timing-sequence response and specificity C2,Balb/c mice; [8],1244
same,3) Timing-sequence response and specificity C3,Balb/c mice; [8],2
same,3) Timing-sequence response and specificity C4,Balb/c mice; [8],0.161
same,Total single peptide,Balb/c mice; [8],9.8
same,1) 95 percentile grouping number A,Balb/c mice; [9],2
same,1) 95 percentile grouping number A1,Balb/c mice; [9],0.025
same,2) Mouse performance B,Balb/c mice; [9],2.4
same,2) Mouse performance B1,Balb/c mice; [9],0
same,2) Mouse performance B2,Balb/c mice; [9],4
same,2) Mouse performance B3,Balb/c mice; [9],4
same,3) Timing-sequence response and specificity C,Balb/c mice; [9],1
same,3) Timing-sequence response and specificity C1,Balb/c mice; [9],100
same,3) Timing-sequence response and specificity C2,Balb/c mice; [9],1244
same,3) Timing-sequence response and specificity C3,Balb/c mice; [9],3
same,3) Timing-sequence response and specificity C4,Balb/c mice; [9],0.241
same,Total single peptide,Balb/c mice; [9],11.3
same,1) 95 percentile grouping number A,Balb/c mice; [10],3
same,1) 95 percentile grouping number A1,Balb/c mice; [10],0.042
same,2) Mouse performance B,Balb/c mice; [10],2.6
same,2) Mouse performance B1,Balb/c mice; [10],4
same,2) Mouse performance B2,Balb/c mice; [10],3
same,2) Mouse performance B3,Balb/c mice; [10],2
same,3) Timing-sequence response and specificity C,Balb/c mice; [10],1
same,3) Timing-sequence response and specificity C1,Balb/c mice; [10],260
same,3) Timing-sequence response and specificity C2,Balb/c mice; [10],1244
same,3) Timing-sequence response and specificity C3,Balb/c mice; [10],3
same,3) Timing-sequence response and specificity C4,Balb/c mice; [10],0.241
same,Total single peptide,Balb/c mice; [10],14.7
same,1) 95 percentile grouping number A,Balb/c mice; [11],2.5
same,1) 95 percentile grouping number A1,Balb/c mice; [11],0.035
same,2) Mouse performance B,Balb/c mice; [11],2
same,2) Mouse performance B1,Balb/c mice; [11],4
same,2) Mouse performance B2,Balb/c mice; [11],2
same,2) Mouse performance B3,Balb/c mice; [11],1
same,3) Timing-sequence response and specificity C,Balb/c mice; [11],0
same,3) Timing-sequence response and specificity C1,Balb/c mice; [11],153
same,3) Timing-sequence response and specificity C2,Balb/c mice; [11],1244
same,3) Timing-sequence response and specificity C3,Balb/c mice; [11],0
same,3) Timing-sequence response and specificity C4,Balb/c mice; [11],0.000
same,Total single peptide,Balb/c mice; [11],11.5
